Where two headings read alike, the source gives them in different places. Blank lines part the entries; values can stand above or below the molecule they belong to.
Key:
bovine erythrocyte GPx = molecular target: T1, bovine erythrocyte GPx (Bos taurus, UniProt P00435); assay: GPx enzyme activity assay (TBHP/GSH, GR/NADPH coupled); type: biochemical; details: 23 °C; n>3; 0.25 mM GSH; read-out: Enzyme inhibition IC50 (CI 95 %)
T1 construct: 180 μL of a bovine erythrocyte GPx1 solution (0.125 U/mL); purchased Sigma Aldrich (Taufkirchen, Germany); host or cells: bovine erythrocytes
T1 sequence (P00435 1-205): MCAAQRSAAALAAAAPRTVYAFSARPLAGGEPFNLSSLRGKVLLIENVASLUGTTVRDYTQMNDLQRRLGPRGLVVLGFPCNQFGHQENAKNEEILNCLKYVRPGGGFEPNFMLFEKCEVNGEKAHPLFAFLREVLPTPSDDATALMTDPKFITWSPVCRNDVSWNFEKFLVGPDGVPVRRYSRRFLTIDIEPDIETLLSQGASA
Experimental: The ability of pentathiepins to inhibit the bovine erythrocyte GPx activity was assayed for by an established enzyme method, which is based on the GPx‐dependent reduction of tert‐butyl hydroperoxide (TBHP) by GSH, leading to the formation of GSSG, which is coupled to the reduction of GSSG back to GSH by glutathione reductase (GR) and the oxidation of NADPH to NADP^+[10] (Figure 1). Inhibition potencies of the compounds were ranked by their IC50 values; that is, concentration of the inhibitor at the inflection point in the sigmoidal log dose‐inhibition curve (Figure 4A), and are summarized for the pentathiepins and mercaptosuccinic acid (MSA) in Table 1.
GPx enzyme activity assay: To evaluate if the various compounds could inhibit GPx1, an enzymatic assay monitoring the activity of the bovine erythrocyte GPx was used as described previously.33 Bovine erythrocyte GPx is highly homologous to the human GPx1 (homology of 87 %)34 but much more affordable. In this assay, GPx reduces tert‐butylhydroperoxide (TBHP) followed by oxidation of glutathione (GSH) to the disulfide (GSSG), which in turn is regenerated to GSH by glutathione reductase (GR) with the consumption of NADPH. To each well of a UV‐transparent 96‐well plate were added 180 μL of a bovine erythrocyte GPx1 solution (0.125 U/mL) and 30 μL of prospective inhibitor in different concentrations diluted in DMF and incubated under shaking for 15 min at room temperature. Then 30 μL of stock solutions of GSH (2.5 mM) and baker's yeast GR plus NADPH (2 U/mL; 2.0 mM) were added. All stock solutions were prepared in potassium phosphate buffer (50 mM, pH 7.4, EDTA 1.1 mM, Triton‐X 0.01 %). The reaction was started by addition of TBHP solution (5 mM), giving final concentrations of 0.075 U/mL bovine erythrocyte GPx, 0.2 U/mL GR, 0.25 mM GSH, 0.2 mM NADPH and prospective inhibitor concentrations between 0.2–100 μM. The reaction was followed by the rate of decreasing absorption of the NADPH at λ=340 nm, measured every 15 s for ca. 20 min. The GPx activity related to untreated control was imported into the GraphPad Prism 6.0 software and the IC50 values were calculated by estimating the inflection point of the sigmoidal log concentration‐activity curves.

SISO cells [1] = assay: Alkaline comet assay; type: cell-based, human; details: 15 min at 0 °C
Experimental: (§1) To assess the induction of DNA strand breaks by pentathiepin 4 the Comet Assay was used. The SISO and HAP‐1 cell lines were treated with either 1 % DMF (solvent control), 20 μM H2O2 (positive control) or 25 μM 4 for 15 min at 0 °C. The DNA in the comet head corresponds to still intact genomic DNA while the tail forms due to the damage of nuclear DNA (Figure 9B). […] For HAP‐1 cells a greater reduction of intact DNA from 86 % in control cells to 66 % in pentathiepin‐incubated cells was observed.
(§2) Alkaline comet assay to assess induction of DNA strand breaks: The method was adapted from Olive and Banath.40 The alkaline protocol allows for the detection of single and double strand breaks as well as alkali‐labile sites and is based on the different electrophoretic mobility of intact and damaged nuclear DNA. […] The induction of strand breaks creates free charged ends that drift out and form the characteristic comet tail. The percentage of DNA that is located in the comet head was selected as descriptor, which corresponds to the amount of still intact genomic DNA.
(§3) Briefly, SISO and HAP‐1 cells were harvested by trypsinization and a single cell suspension with 50 000 cells per mL PBS was prepared. Per condition 50 000 cells were incubated on ice (to impair DNA repair) with either the solvent control DMF (1.0 %), 20 μM H2O2 or 25 μM 4 for 15 min. Afterwards, 400 μL of the cell suspension were mixed with 1.2 mL 1 % low melting point agarose (Carl Roth, Germany) at 40 °C and evenly distributed on agarose‐precoated (GeneOn, Germany) glass slides (Thermo Fisher). After 3 min polymerization the slides were horizontally submerged in lysis buffer (1.2 M NaCl (Carl Roth, Germany), 0.1 % N‐Lauryl‐Sarcosinate (Merck), 0.1 M Na‐EDTA, 0.26 M NaOH) and placed at 4 °C overnight. Before electrophoresis at 0.6 V/cm for 25 min the slides were rinsed three times in rinse/electrophoresis buffer (0.002 M Na‐EDTA, 0.03 M NaOH). Afterwards, the slides were neutralized in distilled water and subsequently stained with 250 μL of a 10 μg/mL PI in water solution for 20 min. Finally, the slides were analyzed with a Leica DMi8 fluorescent microscope and LASX software (Leica, Germany) and comets were scored with CometScore 2.0 (Rex A. Hoover, www.rexhoover.com). At least 100 comets were scored per condition.

[2] = test system: SISO human cervix cancer cell line; assay: Crystal violet proliferation assay; type: cell-based; details: 37 °C, 96 h, n>4, read-out: Inhibition of cell viability GI50 (CI 95 %)
Experimental: GI50 values for 50 % growth inhibition were all in a low micro molar range (Table 1). […] The indole−pentathiepins gave lower GI50 values than the pyrrolo[1,2‐a]quinoxaline derivatives. […] There was also a trend showing that an electron rich substituent in position R^2 increased the antiproliferative effect in SISO cells.
Crystal violet proliferation assay: To measure cell growth inhibition, the crystal violet assay was carried out as previously described.37 Adherent cell lines were seeded out in a 96‐well plate (1000 cells per 200 μL culture medium) and allowed to attach for 24 h. Cells were exposed to nine serial dilutions of compound, added to the medium from 1000‐fold concentrated stock solutions in DMF. For the controls, cells were exposed to 0.1 % DMF alone. After addition of compounds, plates for the detection of the starting point of the proliferation at incubation time zero (t 0) were stopped with glutaraldehyde (see below), washed with Dulbecco's buffer (containing KCl 0.2 g/L, MgSO4 ⋅ 7 H2O 0.1 g/L, Na2HPO4 ⋅ >7 H2O 1.55 g/L, KH2HPO4 0.2 g/L and NaCl 8 g/L in water) and stored at 4 °C until the staining procedure. Treated cells were incubated for 96 h in the incubator, the medium was removed and replaced with 100 μL of 1 % glutaraldehyde in Dulbecco's buffer for 20 min. After washing twice with 150 μL of Dulbecco's buffer, the buffer was removed and replaced with 100 μL of a 0.02 % crystal violet solution dissolved in water for 30 min and subsequently washed in tap water for 15 min. Water was removed and replaced with 100 μL of ethanol (70 % in water) followed by shaking on a 96‐well shaker (MS3 digital, IKA‐Werke, Germany) for 2 h. Optical density was measured with a SpectraMax Plus 383 microtiter plate reader at λ=570 nm (Molecular Devices, USA). The optical density of t 0 plates at the time of treatment were subtracted from optical densities of plates with treated cells after 96 h (T), and the growth inhibition relative to untreated, control cells (C) as described.22 Growth inhibition concentrations at 50 % (GI50) were calculated by determining the inflection point of the sigmoidal log dose‐growth inhibition (%T/C) curves with the GraphPad Prism 6.0 software.

HAP-1 cells [3] = assay: Alkaline comet assay; type: cell-based, human; details: 20 μM positive control, 15 min at 0 °C
Experimental: as §1, §2, §3

HAP-1 cells [4] = assay: Fluorescence microscopy of mitochondrial membrane potential (JC-1); type: cell-based, human; details: positive control, 2.5 μg/L, 1 h
bovine GPx1 = molecular target: T2, bovine GPx1 (Bos taurus, UniProt P00435); assay: Jump-dilution experiments for reversibility of GPx1 inhibition; type: biochemical; details: 30 min pre-incubation at 23 °C, 100-fold jump-dilution
T2 construct: 180 μL of a bovine erythrocyte GPx1 solution (0.125 U/mL); purchased Sigma Aldrich (Taufkirchen, Germany); host or cells: bovine erythrocytes
T2 sequence (P00435 1-205): T1 sequence (P00435 1-205)
Experimental: No difference in the inhibitory activity of 4 after jump‐dilution (Figure 4B left, a) was observed compared to expected inhibition at 0.25 μM (Figure 4B left, 0.25 μM), evidence that GPx1 inhibition is reversible. […] This is consistent with findings that MSA can act as an irreversible inhibitor of GPx1.11 In further jump‐dilution experiments, we pre‐incubated both inhibitors with the assay concentrations of either GSH and TBHP (a, d) or GSH only (b, e), with (a–c) and without (d–f) GPx1 for 30 min.
The jump‐dilution experiments were carried out in a 96‐well plates at room temperature. To each well was added 75 μL of a 20 IU mL^−1 GPx stock‐solution followed by the addition of 3 μL of a 2.5 mM solution of 4 in DMF and 30 μL of a 2.5 mM solution of GSH in buffer or 30 μL of a 2.5 mM solution of GSH in buffer and 30 μL of a 5 mM solution of TBHP in water and 300 μL buffer. The plates were shaken for 30 min in the dark, then each well was diluted 100 fold into a second plate prepared for the GPx‐assay. The enzyme activity was immediately measured as described above.

human GPx = assay: GPx activity assay with human cancer cell lysates (SISO); type: biochemical; details: inhibitor at its IC50 for bovine GPx, 0.5 mM GSH
Experimental: To investigate whether the pentathiepins have an inhibitory effect on human GPx, cell lysates of the human cervix cancer cell line SISO, which expresses high levels of GPx1 (see below), were incubated with either 4 or MSA in concentrations of the IC50 value for the inhibitory effect on bovine GPx1.
To measure the inhibition of human GPx activity, the enzyme assay was adapted to use human cancer cell lysates in place of the bovine enzyme. A quantity of 100 μg cellular protein (determined according to the Bradford method) per well was used. Due to the large consumption of cell lysates, just the inhibitory effect on GPx at one concentration of pentathiepin was determined in primary screening. The concentration of GSH was raised to a concentration of 0.5 mM to increase the velocity of the reaction, all other conditions were unchanged. The rates of NADPH oxidation were normalized to the solvent control. […] We used 100 μg protein of lysates and added GSH up to final concentrations between 0.375–3 mM. The rates of the GPx activity were calculated by nonlinear regression and the fitted with the GraphPad Prism 6.0 software: “Enzyme kinetics – Substrate vs. Velocity (Michaelis‐Menten)”.

SISO cells [5] = assay: Fluorescence microscopy for lipid peroxidation (BODIPY 581/591); type: cell-based, human; details: 100 μM positive control, 24 h
Experimental: In another set of experiments, LPO was visualized by fluorescence microscopy with a dye for lipid peroxides, BODIPY 581/591. […] Together, our results point to apoptosis and not ferroptosis as the mechanism of cell death induced by 4.
Fluorescence microscopy for the detection of lipid peroxidation: SISO cells (250 000 cells) were seeded out in 6‐well plates with an inserted coverslip. Cells were allow to attach for 24 h and then exposed to 25 μM 4 or 100 μM tert‐butyl‐hydroperoxide as a positive control. After 24 h coverslips were washed with PBS and stained with 1 μM BODIPY 581/591 in culture medium for 30 min. Cells on the coverslips were then mounted and examined with a Leica DMi8 fluorescence microscope at λ ex/em=460–500/512–542 nm for the oxidized BODIPY 581/591 and λ ex/em=540–581/592–668 for the reduced form.

Compound: CCOc1c2c(c3cnc4cc(C)ccc4n13)SSSSS2 [Compound 2, 12‐Ethoxy‐3‐methyl‐[1,2,3,4,5]pentathiepino[6′,7′ : 3,4]pyrrolo[1,2‐a]quinoxaline]
IC50 (bovine erythrocyte GPx): 520 nM

Compound: CCOc1c2c(c3c(C(F)(F)F)nc4cc(C)ccc4n13)SSSSS2 [Compound 3, 12‐Ethoxy‐3‐methyl‐6‐(trifluoromethyl)‐[1,2,3,4,5]pentathiepino[6′,7′ : 3,4]pyrrolo[1,2‐a]quinoxaline]
IC50 (bovine erythrocyte GPx): 470 nM

Compound: CCOc1c2c(c3c(C(F)(F)F)nc4cc(C)c(C)cc4n13)SSSSS2 [Compound 5, 12‐Ethoxy‐2,3‐dimethyl‐6‐(trifluoromethyl)‐[1,2,3,4,5]pentathiepino[6′,7′ : 3,4]pyrrolo[1,2‐a]quinoxaline]
IC50 (bovine erythrocyte GPx): 1860 nM | percentage of undamaged (intact) DNA in comet head (SISO cells [1]; 25 μM): 80%

Compound: OO [Compound H2O2, hydrogen peroxide, reference compound]
intact DNA in comet head (HAP-1 cells [3]): significant decreases of intact DNA | intact DNA in comet head (SISO cells [1]; 20 μM positive control): significant decreases of intact DNA

Compound: N#CC(C#N)=NNc1ccc(OC(F)(F)F)cc1 [FCCP, carbonyl cyanide‐p‐trifluoromethoxyphenylhydrazone]
mitochondrial membrane potential (MMP) (HAP-1 cells [4]): complete loss of MMP

Compound: O=C(O)CC(S)C(=O)O (stereo not shown) [MSA, mercaptosuccinic acid, reference compound]
IC50 (bovine erythrocyte GPx): 5860 nM | reversibility of GPx1 inhibition (bovine GPx1): some irreversible inhibition had occurred | inhibition of GPx activity (human GPx): 60% | GI50 [2]: 57100 nM

Compound: CC(C)(C)OO [tBuOOH, reference compound]
lipid peroxidation (LPO) (SISO cells [5]): showed LPO

More lines, now with the values ahead:

IC50 (bovine erythrocyte GPx): 1760 nM
Compound: CCOc1c2c(c3cnc4ccccc4n13)SSSSS2 [Compound 1]

IC50 (bovine erythrocyte GPx): 950 nM | GI50 ([2]; Homo sapiens): 3500 nM
Compound: Cn1c2c(c3ccccc31)SSSSS2 [Compound 6, 6‐Methyl‐6H‐[1,2,3,4,5]pentathiepino[6,7‐b]indole]

IC50 (bovine erythrocyte GPx): 400 nM | GI50 ([2]; Homo sapiens): 1500 nM
Compound: CCn1c2c(c3cc(Cl)ccc31)SSSSS2 [Compound 7, 9‐Chloro‐6‐ethyl‐6H‐[1,2,3,4,5]pentathiepino[6,7‐b]indole]

IC50 (bovine erythrocyte GPx): 830 nM | GI50 ([2]; Homo sapiens): 1400 nM
Compound: c1ccc(Cn2c3c(c4ccccc42)SSSSS3)cc1 [Compound 8, 6‐Benzyl‐6H‐[1,2,3,4,5]pentathiepino[6,7‐b]indole]

Source: paper PMC7496275, “Pentathiepins: A Novel Class of Glutathione Peroxidase 1 Inhibitors that Induce Oxidative Stress, Loss of Mitochondrial Membrane Potential and Apoptosis in Human Cancer Cells” (Chemmedchem, 2020)
